Source: ChEMBL document CHEMBL5143628, “Enteroviral replication inhibition by N-Alkyl triazolopyrimidinone derivatives through a non-capsid binding mode” (Bioorg Med Chem Lett, 2022)

Columns and labels:
[1] = Selectivity index, ratio of CC50 for cytotoxicity against human H1-HeLa cells to EC50 for antiviral activity against Human rhinovirus A71 infected in human H1-HeLa cells; type: toxicity, cell-based; settings: H1-HeLa cells, read-out: Ratio CC50/EC50
[2] = Selectivity index, ratio of CC50 for cytotoxicity against human H1-HeLa cells to EC50 for antiviral activity against Human rhinovirus B14 infected in human H1-HeLa cells; type: toxicity, cell-based; settings: H1-HeLa cells, read-out: Ratio CC50/EC50
rhinovirus A21 = experiment: Antiviral activity against Human rhinovirus A21 infected in human H1-HeLa cells assessed as reduction in virus induced cytopathic effect incubated for 3 days by MTT assay; type: functional, organism-based; settings: Rhinovirus A, H1-HeLa, 72 h
rhinovirus B14 = experiment: Antiviral activity against Human rhinovirus B14 infected in human H1-HeLa cells assessed as reduction in virus induced cytopathic effect incubated for 3 days by MTT assay; type: functional, organism-based; settings: Rhinovirus B, H1-HeLa, 72 h
[3] = Selectivity index, ratio of CC50 for cytotoxicity against human H1-HeLa cells to EC50 for antiviral activity against Human rhinovirus A21 infected in human H1-HeLa cells; type: toxicity, cell-based; settings: H1-HeLa cells, read-out: Ratio CC50/EC50
[4] = Antiviral activity against Human rhinovirus A71 infected in human H1-HeLa cells assessed as reduction in virus induced cytopathic effect incubated for 3 days by MTT assay; type: functional, cell-based; settings: Rhinovirus A, H1-HeLa, 72 h
[5] = Cytotoxicity against human H1-HeLa cells assessed as reduction in cell viability by MTT assay; type: toxicity, cell-based; settings: H1-HeLa cells
Coxsackievirus B1 = experiment: Antiviral activity against Human coxsackievirus B1 infected in human H1-HeLa cells assessed as reduction in virus induced cytopathic effect incubated for 2 days by MTT assay; type: functional, organism-based; settings: Enterovirus B, 48 h
Poliovirus 3 = experiment: Antiviral activity against Human poliovirus 3 infected in human H1-HeLa cells assessed as reduction in virus induced cytopathic effect incubated for 2 days by MTT assay; type: functional, organism-based; settings: Enterovirus C, 48 h

SMILES	selectivity ratio [1]	selectivity ratio [2]	EC50 (rhinovirus A21) [µM]	EC50 (rhinovirus B14) [µM]	selectivity ratio [3]	EC50 [4] [µM]	CC50 [5] [µM]	EC50 (Coxsackievirus B1) [µM]	EC50 (Poliovirus 3) [µM]
CC(C)(C)C1CCc2c(sc3c2c(=O)n(-c2ccccc2)c2nncn32)C1 (stereo not drawn)	8.1	3.7	5.1	5	3.6	2.3	18.7		
CCCCn1c(=O)c2c3c(sc2n2cnnc12)CC(C(C)(C)C)CC3 (stereo not drawn)	> 50	> 45.4	> 100	2.2		2	> 100	> 22.9	2.55
Cn1c(=O)c2c3c(sc2n2cnnc12)CC(C(C)(C)C)CC3 (stereo not drawn)	> 4.3		> 100	> 100		23	> 100	> 100	> 100
CCCCCCn1c(=O)c2c3c(sc2n2cnnc12)CC(C(C)(C)C)CC3 (stereo not drawn)			> 100	> 100		> 100	> 100		
CCn1c(=O)c2c3c(sc2n2cnnc12)CC(C(C)(C)C)CC3 (stereo not drawn)	> 27	> 7	14.7	14.1	> 6.8	3.7	> 100	> 100	3.8
CC(C)CCn1c(=O)c2c3c(sc2n2cnnc12)CC(C(C)(C)C)CC3 (stereo not drawn)			> 100	> 100		> 100	> 100		
CC(C)(C)C1CCc2c(sc3c2c(=O)n(C2CC2)c2nncn32)C1 (stereo not drawn)	8.2	2.3	7.7	15	4.6	4.3	35.5		
CC(C)Cn1c(=O)c2c3c(sc2n2cnnc12)CC(C(C)(C)C)CC3 (stereo not drawn)	> 45.4	> 23.8	5.1	4.2	> 19.6	2.2	> 100		
